The values that follow come from patent publication US8518973B2, “Compounds having 4-pyridylalkylthio group as a substituent” (Santen Pharmaceutical Co., Ltd., priority 2003, dated 2013).

SMILES strings stand for the structures.

Assay [1] relates to rat choroidal neovascularization model. In words: Neovascularization incidence test using laser-induced rat choroidal neovascularization model. It is filed as in vivo. To be noted: po, 168 h; Brown Norway rat, krypton laser photocoagulation, 30 mg/kg/day orally once a day for seven days, ratio to vehicle administration group, average of three to four individuals and six to eight eyes; read-out: Ratio of neovascularization incidence rate (% of Control). Here is the method:
Neovascularization incidence tests of the present compounds were carried out using a rat choroidal neovascularization model, which is one of widely-used methods of evaluating in vivo choroidal neovascularization inhibitory effects of drugs.
As one of widely-used methods of evaluating choroidal neovascularization inhibitory effects of drugs, a neovascularization incidence test using rat choroidal neovascularization models was reported in Graefe's Arch. Cli. Exp. Ophthalmol., 235, 313-319(1997). According to the method described in the above-mentioned literature, neovascularization incidence tests of the present compounds were carried out, ratios of neovascularization incidence rates of present compounds administration groups were calculated to a neovascularization incidence rate of vehicle administration group (control group), and choroidal neovascularization inhibitory effects of the present compounds were evaluated using the obtained ratios as indexes.
A 1% aqueous methyl cellulose solution was added to each test compound to suspend it thereby to prepare a 6 mg/10 ml test compound suspension.
• 1) A 7:1 mixed solution (1 ml/kg) of a 5% ketamine hydrochloride injection and a 2% xylazine hydrochloride injection was administered intramuscularly to rats (Brown Norway, male, eight weeks old, weight: 200 to 250 g) to anesthetize them systemically. • 2) A tropicamide-phenylephrine hydrochloride ophthalmic solution (trade name: Mydrin-P) was instilled into eyes to cause mydriasis, and then photocoagulation was performed in a Bruch's membrane of each rat using a krypton laser photocoagulation apparatus. The laser irradiation was carried out at eight spots per eye sparsely avoiding thick retinal vessels in a posterior section of ocular fundus and focusing on the retinal deep site. Photocoagulation conditions were adjusted to 100 μm of spot size, […] of output and 0.1 sec. of coagulation time. • 3) After the photocoagulation, the ocular fundus was photographed to confirm photocoagulation (laser irradiation) sites. […] Method of Evaluation • 1) Seven days after the photocoagulation, 0.1 ml of a 10% aqueous fluorescein solution was injected into a tail vein of the rat, and fluorescein fundus photography was performed. • 2) Next, in the fluorescein fundus photography, a spot where fluorescence leak was not observed was judged as negative, and a spot where fluorescence leak was observed was judged as positive. Photocoagulation sites where a little fluorescence leak was observed were judged as positive when two sites are present. • 3) Neovascularization incidence rates were calculated according to the calculation equation 1. Ratios of the neovascularization incidence rates of the test compound administration groups to that of the vehicle administration group were calculated according to the calculation equation 2 from neovascularization incidence rates of respective administration groups.
The values are the average of three to four individuals and six to eight eyes.

The test system of a further assay is B16 cells. In words: Tumor growth inhibitory action test using mouse cancer model (B16 cells). In kind it is in vivo. To be noted: po, 240 h; C57BL/6 mouse, B16 cells intradermally, 100 mg/kg/day orally once a day, ten days after injection, average of nine mice; read-out: Tumor tissue weight inhibition rate (%). Here is the method:
Tumor proliferation inhibitory action tests of the present compounds were carried out using a mouse cancer model, which is one of widely-used methods of evaluating in vivo anticancer effects of drugs.
As one of widely-used methods of evaluating anticancer effects of drugs, a tumor growth inhibitory action test using mouse cancer models was reported in Cancer Res., 59, 5209-5218(1999). According to the method described in the above-mentioned literature, tumor growth inhibitory action tests of the present compounds were carried out, their tumor tissue weight inhibition rates were calculated, and anticancer effects of the present compounds were evaluated using the obtained rates as indexes.
A 1% aqueous methyl cellulose solution was added to each test compound to suspend it with a sonicator thereby to prepare a 10 mg/ml test compound suspension.
Physiological saline was added to B16 cells to prepare a 3.3×10^7 cells/ml B16 cell suspension.
Calculation of Tumor Tissue Weight Inhibition Rate
Tumor tissue weight inhibition rates (the average of nine mice per group), which are indexes of anticancer effects were calculated, from the following calculation equation.

The subject of assay [2] is VEGF-induced HUVEC growth. In words: VEGF-induced HUVEC growth reaction evaluation system (cell growth inhibitory action test). In kind it is cell-based. Particulars: Homo sapiens, 72 h, 20 μg/ml test compound solution added 5 μl per well (100 μl), VEGF solution 400 ng/ml 5 μl per well, three days, absorbance at 450 nm, read-out: Cell growth inhibition rate (%). The procedure: Cell growth inhibitory action tests were carried out using a VEGF-induced HUVEC growth reaction evaluation system (HUVEC stands for human umbilical vein endothelial cells), which is one of widely-used methods of evaluating in vitro angiogenesis inhibitory effects of drugs.
As one of widely-used methods of evaluating angiogenesis inhibitory effects of drugs, a cell growth inhibitory action test using a VEGF-induced HUVEC growth reaction evaluation system was reported in Cancer Res., 59, 99-106(1999). According to the method described in the above-mentioned literature, cell growth inhibitory action tests of the present compounds were carried out, their cell growth inhibition rates were calculated, and angiogenesis inhibitory effects of the present compounds were evaluated using the obtained rates as indexes.
Each test compound was dissolved in dimethyl sulfoxide (hereinafter abbreviated as “DMSO”), and the obtained solution was diluted with commercially available phosphoric acid buffer solution (hereinafter abbreviated as “PBS”) to prepare a 20 μg/ml test compound solution.
HUVEC was suspended in a 0.5% fetal bovine serum (hereinafter abbreviated as “FBS”)-containing F12K medium to prepare a 2×10^4 cells/ml HUVEC suspension.
VEGF was dissolved in 0.1% bovine serum albumin-containing PBS, and the obtained solution was diluted with the 0.5% FBS-containing F12K medium to prepare a 400 ng/ml VEGF solution.
• 1) The HUVEC suspension was inoculated in each amount of 100 μl into each well of a 96-well plate coated with I type collagen (2×10^3 cells per well). • 2) One day after inoculation, the test compound solution was added in an amount of 5 μl per well. • 3) One hour after adding the test compound solution, the VEGF solution was added in an amount of 5 μl per well. • 4) Three days after adding the VEGF solution, cell counting kit-8(Dojin Chemical Co., Ltd.) was added in an amount of 10 μl per well. • 5) After three hours, the above-mentioned plate was attached to an absorptiometer (multi label counter ARVO), and absorbance at 450 nm of each well suspension (hereinafter referred to as “test compound suspension”) was measured. • 6) A test was carried out in the same manner as in 1) to 5) except that 1.0% DMSO was used instead of the test compound solution.
Incubation was carried out under conditions of 37° C., 5% carbon dioxide and 95% air in an incubator throughout the above-mentioned test steps.
Cell growth inhibition rates, which are indexes of angiogenesis inhibitory effects, were calculated by the following calculation equation.

The subject of assay [3] is rat adjuvant arthritis model. In words: Paw edema inhibitory action test using rat adjuvant arthritis model. In kind it is in vivo. To be noted: po, 504 h; Lewis rat, adjuvant-untreated (secondary inflammation) paw, 10 mg/kg/day orally once a day, 21 days after, average of eight rats; read-out: Paw edema inhibition rate (%). The procedure: Paw edema inhibitory action tests of the present compounds were carried out using a rat adjuvant arthritis model, which is one of widely-used methods of evaluating in vivo antiarthritis effects of drugs.
As one of widely-used methods of evaluating antiarthritic effects of drugs, a paw edema inhibitory action test using rat adjuvant arthritis models is known. Paw edema inhibitory action tests of the present compounds were carried out, their paw edema inhibition rates were calculated, and antiarthritic effects of the present compounds were evaluated using the obtained rates as indexes.
A 1% aqueous methyl cellulose solution was added to each test compound to suspend it thereby to prepare a 2 mg/ml test compound suspension.
Liquid paraffin was added to Mycobacterium-butyricum to suspend it to prepare 6 mg/ml adjuvant.
Each paw edema inhibition rate of paw edema in an adjuvant-untreated paw (secondary inflammation paw) in each test compound administration group was calculated to paw edema in a secondary inflammation paw in a control group, and antiarthritic effects of the present compounds were evaluated using the obtained rates as indexes.
Paw edema rates were calculated from the following calculation equation 1, and then paw edema inhibition rates (the average of eight rats per group), which are indexes of the antiarthritic effects, were calculated from the calculation equation 2.

Regarding `O=C(Nc1ccc2cn[nH]c2c1)c1cccnc1SCc1ccncc1` [1-296, N-(Indazol-6-yl)-2-(4-pyridylmethylthio)pyridine-3-carboxamide], the response vs control in vivo at 30 mg/kg/day in assay [1] came to 24%. Besides, the inhibition in vivo at 100 mg/kg/day with B16 cells is 71%. In assay [2], the inhibition (usually the relative decrease from the control value, in per cent) at 20 µg/mL (stock) is 100%.

Turning to `Cc1cc(NC(=O)c2ccccc2SCc2ccncc2)ccc1Cl` [1-99, N-(4-Chloro-3-methylphenyl)-2-(4-pyridylmethylthio)benzamide], the inhibition in vivo at 100 mg/kg/day with B16 cells is 64%. In assay [2], the inhibition at 20 µg/mL (stock) came out at 100%. On to `O=C(Nc1ccc(OC(F)(F)F)cc1)c1cccnc1SCc1cc[n+]([O-])cc1` [4-9, 2-(1-Oxopyridin-4-ylmethylthio)-N-(4-trifluoromethoxyphenyl)pyridine-3-carboxamide], for which, in the assay on B16 cells, the inhibition in vivo at 100 mg/kg/day is 77%. The inhibition at 20 µg/mL (stock) in assay [2] came to 100%. As to `O=C(Nc1ccc(SC(F)(F)F)cc1)c1cccnc1SCc1ccncc1` [1-158, 2-(4-Pyridylmethylthio)-N-(4-trifluoromethylthiophenyl)pyridine-3-carboxamide], the inhibition in vivo at 10 mg/kg/day in assay [3] was 22%. For the same compound, the inhibition in vivo at 100 mg/kg/day in the assay with B16 cells is 76%. Moreover, in assay [2], the inhibition at 20 µg/mL (stock) was 100%. Turning to `O=C(Nc1ccc2c(c1)CCC2)c1cccnc1SCc1cc[n+]([O-])cc1` [4-8, N-(5-Indanyl)-2-(1-oxopyridin-4-ylmethylthio)pyridine-3-carboxamide], the inhibition in vivo at 100 mg/kg/day in the assay on B16 cells is 80%. Besides, the inhibition at 20 µg/mL (stock) in assay [2] was 98%. As to `O=C(Nc1ccc(OC(F)(F)F)c(Cl)c1)c1cccnc1SCc1cc[n+]([O-])cc1` [4-11, N-(3-Chloro-4-trifluoromethoxyphenyl)-2-(1-oxopyridin-4-ylmethylthio)-pyridine-3-carboxamide], in the assay with B16 cells, the inhibition in vivo at 100 mg/kg/day came to 62%. Besides, the inhibition at 20 µg/mL (stock) in assay [2] is 100%. On to `CC(C)(C)c1ccc(NC(=O)c2cccnc2SCc2ccncc2)cc1` [1-51, N-(4-tert-Butylphenyl)-2-(4-pyridylmethylthio)pyridine-3-carboxamide], for which the inhibition in vivo at 100 mg/kg/day in the assay with B16 cells was found to be 59%. Besides, the inhibition at 20 µg/mL (stock) in assay [2] was 98%.

Turning to `O=C(Nc1ccc2[nH]ncc2c1)c1cccnc1SCc1ccncc1` [1-23, N-(Indazol-5-yl)-2-(4-pyridylmethylthio)pyridine-3-carboxamide], the response vs control in vivo at 30 mg/kg/day in assay [1] amounted to 26%. Further, the inhibition in vivo at 100 mg/kg/day with B16 cells came to 57%. The inhibition at 20 µg/mL (stock) in assay [2] is 100%.

Take `O=C(Nc1ccc2c(c1)CCC2)c1cccnc1SCc1ccncc1` [1-136, N-(5-Indanyl)-2-(4-pyridylmethylthio)pyridine-3-carboxamide]: the response vs control in vivo at 30 mg/kg/day in assay [1] was 38%. Besides, the inhibition in vivo at 100 mg/kg/day in the assay on B16 cells came to 53%. Also, in assay [2], the inhibition at 20 µg/mL (stock) is 100%.

For `O=C(Nc1ccc2ncccc2c1)c1cccnc1SCc1ccncc1` [1-21, 2-(4-Pyridylmethylthio)-N-(6-quinolyl)pyridine-3-carboxamide], in assay [1], the response vs control in vivo at 30 mg/kg/day was determined as 15%. For the same compound, the inhibition in vivo at 100 mg/kg/day in the assay on B16 cells was found to be 65%. Also, in assay [2], the inhibition at 20 µg/mL (stock) was determined as 99%.

Regarding `Cc1ccc(NC(=O)c2sccc2SCc2ccncc2)cc1C` [1-253, N-(3,4-Dimethylphenyl)-3-(4-pyridylmethylthio)thiophene-2-carboxamide], in assay [2], the inhibition at 20 µg/mL (stock) amounted to 100%. Same read-out and setting: in the case of `CCOC(=O)Cc1ccc(NC(=O)c2cccnc2SCc2ccncc2)cc1` [1-61, N-(4-Ethoxycarbonylmethylphenyl)-2-(4-pyridylmethylthio)pyridine-3-carboxamide] it was 65%. Regarding `CSc1cc(CSc2ncccc2C(=O)Nc2ccc(Cl)cc2)ccn1` [1-232, N-(4-Chlorophenyl)-2-(2-methylthiopyridin-4-ylmethylthio)pyridine-3-carboxamide], in assay [2], the inhibition at 20 µg/mL (stock) was 75%. Turning to `Cc1cc(C)cc(NC(=O)c2cccnc2SCc2ccnc(C(=O)O)c2)c1` [6-1, 2-(2-Carboxypyridin-4-ylmethylthio)-N-(3,5-dimethylphenyl)pyridine-3-carboxamide], the inhibition at 20 µg/mL (stock) in assay [2] came to 72%. Take `CCCc1ccc(NC(=O)c2cccnc2SCc2ccncc2)cc1` [1-49, N-(4-n-Propylphenyl)-2-(4-pyridylmethylthio)pyridine-3-carboxamide]: in assay [2], the inhibition at 20 µg/mL (stock) is 100%. With `O=C(Nc1cnc2ccccc2c1)c1ccccc1SCc1ccncc1` [1-95, 2-(4-Pyridylmethylthio)-N-(3-quinolyl)benzamide], the inhibition at 20 µg/mL (stock) in assay [2] amounted to 100%. Take `Cc1cc(C)cc(NC(=O)c2cccnc2SCc2ccnc(Br)c2)c1` [1-230, 2-(2-Bromopyridin-4-ylmethylthio)-N-(3,5-dimethylphenyl)pyridine-3-carboxamide]: in the assay on B16 cells, the inhibition in vivo at 100 mg/kg/day worked out at 66%. In assay [2], the inhibition at 20 µg/mL (stock) was 100%.

On to `O=C(Nc1cc2ccccc2cn1)c1sccc1SCc1ccncc1` [1-274, N-(3-Isoquinolyl)-3-(4-pyridylmethylthio)thiophene-2-carboxamide], for which the inhibition at 20 µg/mL (stock) in assay [2] worked out at 95%.
